From PMC10132538, “Regulation of the two-pore domain potassium channel, THIK-1 and THIK-2, by G protein coupled receptors” (PLOS ONE, 2023)

Assays:
ΔN-THIK-2 channel = target: T1, ΔN-THIK-2 channel (Mus musculus, UniProt F6UVE5); test: Effect of DAG analogue on ΔN-THIK-2 channel current (I10th/I0) in CHO-K1 cells; assay type: cell-based; details: 10 and 30 μM
T1 construct: expressed in transfected cells; host or cells: CHO-K1
T1 sequence (F6UVE5 with tags, fused parts or gaps): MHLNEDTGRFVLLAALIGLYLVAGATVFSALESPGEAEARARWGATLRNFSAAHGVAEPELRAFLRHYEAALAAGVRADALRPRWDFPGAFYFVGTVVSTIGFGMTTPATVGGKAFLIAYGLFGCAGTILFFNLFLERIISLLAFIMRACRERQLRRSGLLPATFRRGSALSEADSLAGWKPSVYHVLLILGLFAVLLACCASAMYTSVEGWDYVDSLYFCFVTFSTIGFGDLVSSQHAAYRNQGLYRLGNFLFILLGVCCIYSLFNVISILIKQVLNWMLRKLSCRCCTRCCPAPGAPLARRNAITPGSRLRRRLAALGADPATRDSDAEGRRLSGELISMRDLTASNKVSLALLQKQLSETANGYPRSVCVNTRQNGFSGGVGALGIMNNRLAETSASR
Source text: (§1) Pertussis toxin (PTX) was purchased from Wako (Osaka, Japan).
Fig 7 Effect of C-Ala mutation or OAG on ΔN-THIK-2 channel. (A) Current-voltage relationships before and after stimulation of mGlu2. […]. (B) Effects of the mGlu2 activation on the ΔN-THIK-2 and C-Ala mutants. […]. Mean and S.D. are shown as bars (n = 11–12). (C) Current-voltage relationships before and after application of OAG. The current-voltage relationships before and 50 sec after application of OAG are shown (black and red lines, respectively). The tested concentration of OAG was 10 μM (left) and 30 μM (right). (D) Effects of OAG on the ΔN-THIK-2 channel. The ratio (I10th/I0) are not different between OAG applied group (filled circles) and vehicle applied group (open circles). Mean and S.D. are shown as bars (n = 7–11). **: 0.001<p≤ 0.01, n.s.: p> 0.05.

THIK-1 channel [1] = target: T2, THIK-1 channel (Mus musculus, UniProt Q8R1P5); test: Effect of DAG analogue on THIK-1 channel current (I10th/I0); assay type: cell-based; details: 50 sec after application
T2 construct: expressed in transfected cells; host or cells: HEK293T
T2 sequence (Q8R1P5 1-405): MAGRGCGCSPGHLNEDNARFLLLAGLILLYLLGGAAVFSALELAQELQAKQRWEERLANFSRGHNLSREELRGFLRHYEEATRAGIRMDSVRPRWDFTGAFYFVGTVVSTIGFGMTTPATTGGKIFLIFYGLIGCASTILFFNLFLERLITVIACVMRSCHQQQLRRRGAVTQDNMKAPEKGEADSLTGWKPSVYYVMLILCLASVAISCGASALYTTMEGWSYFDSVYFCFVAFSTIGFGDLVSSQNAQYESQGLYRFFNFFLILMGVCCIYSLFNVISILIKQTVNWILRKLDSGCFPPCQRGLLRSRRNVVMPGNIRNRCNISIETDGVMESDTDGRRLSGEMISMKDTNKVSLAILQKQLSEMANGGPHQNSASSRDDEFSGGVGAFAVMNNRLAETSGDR
Source text: as §1
Fig 5 Effects of OAG on THIK-1 channel current. (A) Current and membrane potential relationships before and after application of OAG. Ramp pulses were applied ever 5 sec before and after application of OAG. The current and membrane potential relationships before (black) and 50 sec after application of the indicated concentration of OAG (red) are shown. (B) Effects of OAG on THIK-1 channel. Circles indicate the ratio of the current amplitudes after application of OAG or DMSO to the amplitudes before application of them (I10th/I0). Mean and S.D. are shown as bars (n = 8–12). n.s.: p> 0.05.

mGlu2 = target: T3, mGlu2 (Rattus norvegicus, UniProt P31421); test: mGlu2-induced increase of THIK-1 channel current, whole cell patch clamp in HEK293T cells; assay type: cell-based; details: concentration response of THIK-1 current increase
T3 construct: expressed in transfected cells; host or cells: HEK293T
T3 sequence (P31421 19-872): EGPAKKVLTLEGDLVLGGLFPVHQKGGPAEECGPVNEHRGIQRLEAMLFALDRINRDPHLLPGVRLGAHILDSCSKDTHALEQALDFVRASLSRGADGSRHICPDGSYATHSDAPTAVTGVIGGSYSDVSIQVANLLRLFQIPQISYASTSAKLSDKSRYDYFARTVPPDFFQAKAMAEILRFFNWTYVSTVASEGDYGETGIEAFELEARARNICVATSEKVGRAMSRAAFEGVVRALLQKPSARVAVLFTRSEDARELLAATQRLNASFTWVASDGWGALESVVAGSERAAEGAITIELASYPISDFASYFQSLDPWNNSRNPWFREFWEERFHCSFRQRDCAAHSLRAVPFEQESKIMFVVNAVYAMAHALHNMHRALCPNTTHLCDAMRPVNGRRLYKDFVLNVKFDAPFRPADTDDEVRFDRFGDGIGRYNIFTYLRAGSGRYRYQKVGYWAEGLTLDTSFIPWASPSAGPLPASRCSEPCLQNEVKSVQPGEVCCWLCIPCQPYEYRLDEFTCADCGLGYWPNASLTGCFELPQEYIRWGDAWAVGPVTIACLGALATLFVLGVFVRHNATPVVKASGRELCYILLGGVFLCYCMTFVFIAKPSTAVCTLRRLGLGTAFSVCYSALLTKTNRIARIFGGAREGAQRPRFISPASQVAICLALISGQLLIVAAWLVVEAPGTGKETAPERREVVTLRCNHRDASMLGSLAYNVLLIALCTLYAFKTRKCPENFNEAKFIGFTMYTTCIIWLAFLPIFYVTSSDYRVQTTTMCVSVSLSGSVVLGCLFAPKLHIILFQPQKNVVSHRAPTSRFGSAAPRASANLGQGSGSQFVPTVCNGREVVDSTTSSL
Source text: (§2) Coding region of mGu2 (M1-P840) was amplified by conventional PCR with designed primers and the resulting product was subcloned into pEYFP-N1 vector at the BglII and EcoRI sites. The cDNAs for mouse THIK-2 channel and dimeric THIK channels were subcloned into pcDNA3.1(-) vector. To increase the surface membrane expression of the THIK-2 channel, 29 residues (Ser2-Ser30) were removed (ΔN-THIK-2). […] Ci-VSP-IRES-GFP vector was kindly gifted by Dr. Y. Okamura (Osaka University, Osaka, Japan). HEK293T cells or CHO-K1 cells were seeded on glasses and transfected with the plasmid DNAs for THIK channels, receptors and a transfection marker of yellow fluorescent protein (YFP). Electrophysiological experiments were performed 24–72 h after the transfection. […] Pertussis toxin (PTX) was purchased from Wako (Osaka, Japan). […] All reagents were dissolved at high concentration and stored at -20 °C as the stock solutions. The stock reagent solution was diluted at concentrations for the electrophysiological experiments. […]
(§3) The amplitude of the THIK-1 channel current at 0 mV was measured from every trace induced by the ramp pulse protocol to minimize the fraction of non-selective cationic leak current. […] The effects of GPCRs on the THIK-1 channel were evaluated as the ratio of the current amplitude after the agonist application to I0 (Iagonist/I0). […]

[2] = system: endogenously expressed channels in HEK293T cells; test: Effect of receptor stimulation on the endogenous current in HEK293T cells without THIK-1; assay type: cell-based
Source text: The amplitude of the current increase at the 15th trace (ΔI15th) after the application of GABA or oxo-M were normalized to that at the 5th traces (ΔI5th) with or without additional activation of A2aR (ΔI15th/ΔI5th).
The current density at 0 mV (I0) in HEK293T cell transfected with indicated receptors and the effects of the receptor stimulation are shown as Mean and S.D.

GABABR = target: T4, GABABR (Homo sapiens, UniProt Q9UBS5); test: GABABR-induced increase of THIK-1 channel current, whole cell patch clamp in HEK293T cells; assay type: cell-based; details: PTX 300 ng/mL, more than 16 h
T4 construct: expressed in transfected cells; host or cells: HEK293T
T4 sequence (Q9UBS5 15-961 limits assumed): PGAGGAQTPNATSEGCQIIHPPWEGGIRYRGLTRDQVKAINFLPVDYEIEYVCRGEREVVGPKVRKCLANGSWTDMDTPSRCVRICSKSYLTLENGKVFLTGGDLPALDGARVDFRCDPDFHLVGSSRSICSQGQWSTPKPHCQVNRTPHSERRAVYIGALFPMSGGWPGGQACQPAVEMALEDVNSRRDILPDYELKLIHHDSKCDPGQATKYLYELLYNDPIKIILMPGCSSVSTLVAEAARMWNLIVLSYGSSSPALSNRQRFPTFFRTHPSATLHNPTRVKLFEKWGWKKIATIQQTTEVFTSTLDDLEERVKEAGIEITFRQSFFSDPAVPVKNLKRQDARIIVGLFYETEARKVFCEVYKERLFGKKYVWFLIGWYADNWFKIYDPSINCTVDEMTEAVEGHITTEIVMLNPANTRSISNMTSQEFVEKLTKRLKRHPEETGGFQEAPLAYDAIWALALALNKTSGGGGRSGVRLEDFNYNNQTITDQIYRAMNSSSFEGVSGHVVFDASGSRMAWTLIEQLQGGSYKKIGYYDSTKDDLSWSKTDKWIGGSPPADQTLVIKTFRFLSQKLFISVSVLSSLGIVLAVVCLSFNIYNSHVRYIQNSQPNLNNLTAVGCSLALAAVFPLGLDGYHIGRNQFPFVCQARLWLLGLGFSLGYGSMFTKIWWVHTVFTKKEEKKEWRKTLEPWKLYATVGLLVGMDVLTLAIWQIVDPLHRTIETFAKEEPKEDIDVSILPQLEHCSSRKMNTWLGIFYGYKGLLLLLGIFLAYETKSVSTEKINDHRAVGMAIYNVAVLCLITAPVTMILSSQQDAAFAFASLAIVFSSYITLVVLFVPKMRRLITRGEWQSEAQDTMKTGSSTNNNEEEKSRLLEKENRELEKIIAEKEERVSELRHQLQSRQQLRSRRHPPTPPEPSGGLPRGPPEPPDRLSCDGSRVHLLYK
T4 sequence (O75899 42-941 partner): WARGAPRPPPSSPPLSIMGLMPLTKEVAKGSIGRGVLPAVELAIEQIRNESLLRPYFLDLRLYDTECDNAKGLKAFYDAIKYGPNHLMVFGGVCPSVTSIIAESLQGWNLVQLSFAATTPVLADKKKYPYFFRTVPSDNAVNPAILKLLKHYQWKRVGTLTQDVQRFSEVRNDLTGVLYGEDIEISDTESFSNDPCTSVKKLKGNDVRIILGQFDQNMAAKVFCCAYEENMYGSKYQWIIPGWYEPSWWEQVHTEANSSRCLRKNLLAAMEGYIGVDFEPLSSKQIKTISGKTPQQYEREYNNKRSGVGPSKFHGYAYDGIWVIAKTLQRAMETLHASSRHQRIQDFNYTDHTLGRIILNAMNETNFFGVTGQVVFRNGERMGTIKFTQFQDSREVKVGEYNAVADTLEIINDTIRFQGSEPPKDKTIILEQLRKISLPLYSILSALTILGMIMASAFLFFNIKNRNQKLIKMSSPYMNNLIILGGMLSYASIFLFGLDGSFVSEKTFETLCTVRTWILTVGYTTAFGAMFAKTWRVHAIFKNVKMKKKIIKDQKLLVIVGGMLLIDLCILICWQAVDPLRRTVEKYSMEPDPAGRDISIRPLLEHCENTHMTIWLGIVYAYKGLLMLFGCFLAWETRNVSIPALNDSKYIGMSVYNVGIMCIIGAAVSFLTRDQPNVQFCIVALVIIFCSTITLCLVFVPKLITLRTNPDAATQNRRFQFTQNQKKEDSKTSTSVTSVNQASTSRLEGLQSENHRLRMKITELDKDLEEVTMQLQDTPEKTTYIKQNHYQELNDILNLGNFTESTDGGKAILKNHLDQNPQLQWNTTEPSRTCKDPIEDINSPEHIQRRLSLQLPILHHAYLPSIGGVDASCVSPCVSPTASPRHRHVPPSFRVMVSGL
Source text: as §2, §3

[3] = target: T5, mGlu2-YFP / ΔN-THIK-2 channel (Rattus norvegicus, UniProt P31421); test: mGlu2-YFP-induced increase of ΔN-THIK-2 channel current in CHO-K1 cells; assay type: cell-based, mouse; details: PTX treated cells, glutamate 200 μM
T5 construct: Coding region of mGu2 (M1-P840) was amplified by conventional PCR; expressed in transfected cells; host or cells: CHO-K1
T5 sequence (P31421 19-840, stated change not applied): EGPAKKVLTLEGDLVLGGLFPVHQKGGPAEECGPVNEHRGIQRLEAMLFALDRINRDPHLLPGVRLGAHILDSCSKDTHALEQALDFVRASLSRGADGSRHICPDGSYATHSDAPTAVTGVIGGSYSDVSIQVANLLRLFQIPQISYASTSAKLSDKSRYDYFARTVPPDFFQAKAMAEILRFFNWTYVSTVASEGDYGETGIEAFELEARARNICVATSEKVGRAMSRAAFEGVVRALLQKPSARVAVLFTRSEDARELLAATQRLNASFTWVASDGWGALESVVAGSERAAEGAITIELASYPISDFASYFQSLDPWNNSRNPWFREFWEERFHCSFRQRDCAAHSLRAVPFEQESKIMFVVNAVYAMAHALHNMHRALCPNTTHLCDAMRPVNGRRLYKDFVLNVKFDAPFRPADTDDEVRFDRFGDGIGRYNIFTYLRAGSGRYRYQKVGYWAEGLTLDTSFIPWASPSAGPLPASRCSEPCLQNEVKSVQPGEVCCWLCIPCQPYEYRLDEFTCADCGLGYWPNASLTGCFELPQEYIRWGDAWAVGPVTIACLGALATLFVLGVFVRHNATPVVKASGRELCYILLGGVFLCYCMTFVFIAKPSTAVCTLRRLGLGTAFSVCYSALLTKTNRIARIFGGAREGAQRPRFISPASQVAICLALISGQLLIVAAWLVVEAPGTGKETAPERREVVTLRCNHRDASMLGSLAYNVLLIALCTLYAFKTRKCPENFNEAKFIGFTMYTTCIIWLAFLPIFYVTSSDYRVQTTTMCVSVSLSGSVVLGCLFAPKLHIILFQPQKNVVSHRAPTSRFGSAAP
Source text: as §2, with “experiments. PTX was solved in the culture medium (final concentration, 300 ng/mL) and cells were incubated in it for more than 16 h. U73122 or U73343 (final concentration, 2 μM each) was dissolved in Hanks’ Balanced Salt Solution (HBSS, Invitrogen, Carlsbad, CA, USA) supplemented with 1 mM Ca^2+ and 0.3 mM Mg^2+.” for “experiments.”

THIK-1 channel [4] = test: Basal current (I0) density of THIK-1 channel at 0 mV in HEK293T cells; assay type: cell-based; details: 0 mV, before agonist
Source text: Coding region of mGu2 (M1-P840) was amplified by conventional PCR with designed primers and the resulting product was subcloned into pEYFP-N1 vector at the BglII and EcoRI sites. The cDNAs for mouse THIK-2 channel and dimeric THIK channels were subcloned into pcDNA3.1(-) vector. To increase the surface membrane expression of the THIK-2 channel, 29 residues (Ser2-Ser30) were removed (ΔN-THIK-2). […] Ci-VSP-IRES-GFP vector was kindly gifted by Dr. Y. Okamura (Osaka University, Osaka, Japan). HEK293T cells or CHO-K1 cells were seeded on glasses and transfected with the plasmid DNAs for THIK channels, receptors and a transfection marker of yellow fluorescent protein (YFP). Electrophysiological experiments were performed 24–72 h after the transfection. […] Pertussis toxin (PTX) was purchased from Wako (Osaka, Japan). […] All reagents were dissolved at high concentration and stored at -20 °C as the stock solutions. The stock reagent solution was diluted at concentrations for the electrophysiological experiments. PTX was solved in the culture medium (final concentration, 300 ng/mL) and cells were incubated in it for more than 16 h. U73122 or U73343 (final concentration, 2 μM each) was dissolved in Hanks’ Balanced Salt Solution (HBSS, Invitrogen, Carlsbad, CA, USA) supplemented with 1 mM Ca^2+ and 0.3 mM Mg^2+. Cells were incubated in HBSS with U73122 or U73343 for 10 min at room temperature before the whole cell current recording.
Composition of bath solution was (in mM) 140 NaCl, 4 KCl, 1 CaCl2, 0.3 MgCl2, 10 HEPES (pH 7.4 adjusted with NaOH). The pipette solution for whole cell patch clamp experiments contained (mM) 130 KCl, 5 Na2-ATP, 3 EGTA, 0.1 CaCl2, 10 HEPES, 4 MgCl2, (pH 7.3 adjusted with KOH). GTP (0.3 mM) was supplemented in the pipette solution. Once the whole cell configuration was established, the cell was held at -80mV and ramp pulses (-120mV to +40mV for 0.4 sec) were applied every 5 sec. Various concentrations of the agonists were applied using a fast perfusion system (VC77SP, Warner Instruments, Hamden, CT, USA). The PKC inhibitor chelerythrine was included in the pipette solution.
The amplitude of the THIK-1 channel current at 0 mV was measured from every trace induced by the ramp pulse protocol to minimize the fraction of non-selective cationic leak current. The current amplitude before the agonist application was set as the basal current amplitude (I0). The effects of GPCRs on the THIK-1 channel were evaluated as the ratio of the current amplitude after the agonist application to I0 (Iagonist/I0). The EC50 values were estimated by fitting the concentration response curve to a Hill equation (Origin2016; OriginLab, Northampton, MA, USA). […] The effects of A2aR on the Gi/o-R-induced current increase of the THIK-1 channel was estimated as follows. […] All data are shown as means and S.D. The statistical significance between two or more than two groups was estimated by unpaired Student’s t-test or by a one-way analysis of variance (ANOVA) followed by Tukey’s test, respectively. […] Values of p≤ 0.05 were considered as statistically significant (***:p≤0.001, **:0.001<p≤0.01, *:0.01<p≤0.05, n.s.:p>0.05).

CCCCCCCC/C=C\CCCCCCCC(=O)OC[C@H](CO)OC(C)=O [OAG, 1-oleoyle-2-acetyl-sn-glycerol]
current amplitude of ΔN-THIK-2 channel (ΔN-THIK-2 channel): did not increase the current amplitude | increase in the amplitude of the THIK-1 channel current (I10th/I0) versus vehicle (DMSO) (THIK-1 channel [1]): not significantly different

N[C@@H](CCC(=O)O)C(=O)O [glutamate, L-glutamate]
n; Hill coefficient (mGlu2): 1.19 ± 0.65 | Effect of agonist (Iagonist/I0) ([2]; HEK293T transfected with mGlu1, no THIK-1): 0.98 ± 0.17 | Effect of agonist (Iagonist/I0) ([2]; HEK293T transfected with mGlu2, no THIK-1): 0.92 ± 0.06

Pertussis toxin [PTX]
effect of GABA on the THIK-1 channel after inhibitor treatment (GABABR): not observed | effect of mGlu2-YFP on ΔN-THIK-2 channel after inhibitor treatment [3]: inhibited | Basal current (I0) density of THIK-1 channel (THIK-1 channel [4]; THIK-1 + GABABR, + PTX (300 ng/mL)): 170.6 ± 58.2 (7)^n.s. pA/pF | Basal current (I0) density of THIK-1 channel (THIK-1 channel [4]; THIK-1 + M2R, + PTX (300 ng/mL)): 168.6 ± 141.2 (6)^n.s pA/pF | Basal current (I0) density of THIK-1 channel (THIK-1 channel [4]; THIK-1 + mGlu2, + PTX (300 ng/mL)): 281.87 ± 148.3 (5)^n.s. pA/pF
